Assay results: paper PMC7982674, “XMD-17-51 Inhibits DCLK1 Kinase and Prevents Lung Cancer Progression” (Frontiers in Pharmacology, 2021)
pIC50: −log10 of the molar value.

Biological target: T1, Doublecortin-like kinase 1 (DCLK1) (Homo sapiens, UniProt O15075)
T1 construct: Purified kinase-active DCLK1 (cat. no., 02-139, Carna Biosciences)
T1 sequence (O15075 1-740): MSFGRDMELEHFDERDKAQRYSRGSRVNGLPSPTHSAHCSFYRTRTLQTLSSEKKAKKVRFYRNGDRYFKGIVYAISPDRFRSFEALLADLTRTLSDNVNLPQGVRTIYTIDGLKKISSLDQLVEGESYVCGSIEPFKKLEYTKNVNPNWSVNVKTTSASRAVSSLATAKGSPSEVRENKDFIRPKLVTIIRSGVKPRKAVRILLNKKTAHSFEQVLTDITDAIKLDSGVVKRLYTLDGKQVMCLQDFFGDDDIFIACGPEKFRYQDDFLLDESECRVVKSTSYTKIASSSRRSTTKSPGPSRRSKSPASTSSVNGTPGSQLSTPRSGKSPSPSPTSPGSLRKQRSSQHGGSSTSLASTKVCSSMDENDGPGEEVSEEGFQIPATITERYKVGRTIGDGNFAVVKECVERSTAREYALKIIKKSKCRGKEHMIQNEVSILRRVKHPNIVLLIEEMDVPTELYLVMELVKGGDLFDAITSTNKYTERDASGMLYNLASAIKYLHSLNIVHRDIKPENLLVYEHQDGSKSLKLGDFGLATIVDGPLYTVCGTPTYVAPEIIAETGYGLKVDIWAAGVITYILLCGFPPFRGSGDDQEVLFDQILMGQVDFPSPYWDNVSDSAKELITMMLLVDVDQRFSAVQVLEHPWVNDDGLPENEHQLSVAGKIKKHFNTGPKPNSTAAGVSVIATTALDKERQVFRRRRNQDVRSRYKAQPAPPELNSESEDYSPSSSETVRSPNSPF
Assay: cell-free kinase assay with ULight-CREBtide peptide substrate, […] ATP (Envision readout)
Assay type: biochemical

## CN1C(=O)c2ccccc2N(C)c2nc(Nc3cnn(C4CCNCC4)c3)ncc21 [XMD-17-51]
  pIC50: 7.83
